Experimental data from patent US20040162247A1, “Therapeutic agent or osteoporosis comprising an active ingredient of quercetin derivatives” (priority 2000, published 2004).
“And” between values parts separate entries of the source, which are not always exact repeats. Identical values can stand only once. Like-named read-outs stand apart in the source and are kept apart here. Values belong to the compound of their own block, whether it stands above or below them.

Experiments:
[1] = system: ovariectomized rats; assay: Wet weight of internal organs of ovariectomized rats after drug administration; settings: OVX rats
Description: To find out quercetin effect on internal organ of test animal, liver, kidney, brain, uterus, skin, and tibia were removed from the test animals administered with test agents for 9 weeks after operation and wet weight of each organ was measured (see: Table 4).

[2] = Body weight of ovariectomized rats during drug administration
Description: (§1) Female SD (Sprague-Dawley) rats, a model animal for type I osteoporosis occurring after menopause were employed for evaluating pharmacological effectiveness of quercetin. Female rats (10 weeks old) weighing 200 to 300 g, obtained from the Korea Research Institute of Chemical Technology were employed as experimental animals. Experiment was carried out by the procedure which comprises removing ovary, administration of agents to the each group of rats, and at certain days after ovariectomy, the rats were sacrificed and subjected to analyses including measurement of body weight, examination of internal organs, measurement of trabecular bone area, complete blood count, and biochemical analyses of plasma.
(§2) The Sham group, animals operated upon for the surgery as in the ovariectomized rats except for removing ovary, were employed to compare the changes caused solely by ovariectomy in control group which were ovariectomized but no agent was administered. Control group was employed to compare the changes caused by administration of agents in test group which were ovariectomized and administered with testing agents.
(§3) During the period of administration, blood was sampled once a week. After 9-week administration, entire blood was withdrawn with heparin treatment. Following complete blood count (CBC), the blood was centrifuged at 3,000 rpm for 20 minutes to obtain plasma which was stored at −70° C. until use. For measurement of bone mineral density, the lumbar spine L5 and L6, and right tibia were removed and stored separately in 4% (v/v) formalin solution.

[3] = rat, in vivo
Description: as §1, §2, §3

[4] = system: osteoclasts; assay: Osteoclast proliferation, count of TRAP-positive multinucleated cells; type: cell-based, ICR mice; settings: for Number of osteoclast (% of control group): day 2, TRAP staining
Description: ICR mice (Korea Research Institute of Chemical Technology, Taejon, Korea) were fed with calcium deficient diet (ICN Biomedicals, Inc., Ohio, U.S.A.) for 4 weeks to activate osteoclasts. The right and left tibiae and femurs of the calcium […] were removed avoiding contamination of surrounding muscle tissues. Femurs and right and left tibiae, classified on the clean bench and kept on ice separately, were added into the α-MEM containing 100 μg/ml streptomycin and then vigorously shaken respectively to extract osteoclasts into the medium. After kept on ice for 5 minutes, the cell suspension was centrifuged at 800×g for 3 minutes and the cell pellet was resuspended in a α-MEM nutrient medium supplemented with 10% FBS, 100 μg/ml streptomycin and 100 unit/ml penicillin. The cell suspension was distributed into wells of a 24-well plate at a cell number of 3.5×10^6/well. To the osteoclasts obtained in Example 2-1 above, quercetin was added to yield concentrations of 1×10^−8 to 1×10^−2 mg/ml. On day 2, the cells were subjected to tartrate-resistant acid phosphatase (TRAP) staining using a commercially available kit (Sigma Chemical Co., U.S.A.), followed by counting of osteoclasts which are TRAP-positive multinucleated cells (MNC), judged by more than three nuclei in a cell stained red (see: Table 2).

[5] = system: mice; settings: orally administered, M. Sullivan et al. 1951; cited from earlier work
[6] = 9 weeks i.p. (E2 1 μg/kg/day; quercetin, genistein 10 mg/kg/day)

Brain wet weight [1, 6]: 1.98 ± 0.03 g | Kidney wet weight [1, 6]: 1.83 ± 0.03 g | Liver wet weight [1, 6]: 10.03 ± 0.36 g | Skin wet weight [1, 6]: 188 ± 9 mg | Tibia wet weight [1, 6]: 0.537 ± 0.008 g | Uterus wet weight [1, 6]: 106 ± 3 mg
Structure (SMILES): O=c1c(-c2ccc(O)cc2)coc2cc(O)cc(O)c12 [Genistein, genistein]
Effect on weight of uterus / uterine hypertrophy (in words) ([1]; 9 weeks i.p., compared with control group): did not give rise to change in weight of uterus | Weight ([2]; OVX rats, 1 week after operation (start of administration)): 242.12 ± 5.96 g | Body weight increase after ovariectomy (in words) ([2]; OVX rats, compared with control group, E2 1 μg/kg/day, quercetin or genistein 10 mg/kg/day): rapid increase of body weight | Weight ([2]; OVX rats, i.p. from 1 week after operation (E2 1 μg/kg/day; quercetin, genistein 10 mg/kg/day), 2 weeks after operation): 270.00 ± 8.05 g | Weight ([2]; OVX rats, i.p. from 1 week after operation (E2 1 μg/kg/day; quercetin, genistein 10 mg/kg/day), 3 weeks after operation): 296.20 ± 7.68 g | Weight ([2]; OVX rats, i.p. from 1 week after operation (E2 1 μg/kg/day; quercetin, genistein 10 mg/kg/day), 4 weeks after operation): 310.80 ± 7.80 g | Weight ([2]; OVX rats, i.p. from 1 week after operation (E2 1 μg/kg/day; quercetin, genistein 10 mg/kg/day), 5 weeks after operation): 317.29 ± 7.93 g | Weight ([2]; OVX rats, i.p. from 1 week after operation (E2 1 μg/kg/day; quercetin, genistein 10 mg/kg/day), 6 weeks after operation): 327.19 ± 8.31 g | Weight ([2]; OVX rats, i.p. from 1 week after operation (E2 1 μg/kg/day; quercetin, genistein 10 mg/kg/day), 7 weeks after operation): 332.80 ± 9.23 g | Weight ([2]; OVX rats, i.p. from 1 week after operation (E2 1 μg/kg/day; quercetin, genistein 10 mg/kg/day), 8 weeks after operation): 336.38 ± 9.01 g | Weight ([2]; OVX rats, i.p. from 1 week after operation (E2 1 μg/kg/day; quercetin, genistein 10 mg/kg/day), 9 weeks after operation): 342.71 ± 8.26 g | Weight ([2]; OVX rats, i.p. from 1 week after operation (E2 1 μg/kg/day; quercetin, genistein 10 mg/kg/day), 10 weeks after operation): 347.23 ± 7.57 g | Weight ([2]; before operation (baseline, before administration)): 217.55 ± 7.24 g

Structure (SMILES): O=c1c(O)c(-c2ccc(O)c(O)c2)oc2cc(O)cc(O)c12 [Quercetin, quercetin]
Weight [3]: 221.87 ± 7.57 g | Inhibitory effect on the osteoclast proliferation (in words) ([4]; 1×10^−8 to 1×10^−4 mg/ml): little inhibitory effect | Number of osteoclast (% of control group) ([4]; 1 × 10^−2 mg/ml): 25 % of control group and 24.7 ± 5.7 % of control group | Number of osteoclast (% of control group) ([4]; 1 × 10^−3 mg/ml): 61 % of control group and 61.1 ± 4.1 % of control group | Number of osteoclast (% of control group) ([4]; 1 × 10^−4 mg/ml): 89.6 ± 3.2 % of control group | Number of osteoclast (% of control group) ([4]; 1 × 10^−6 mg/ml): 96.8 ± 2.7 % of control group | Number of osteoclast (% of control group) ([4]; 1 × 10^−8 mg/ml): 100.9 ± 1.8 % of control group | LD50 [5]: not less than 160 mg/kg
